Experimental data reported in ChEMBL document CHEMBL1152823, “Identification of novel epoxide inhibitors of hepatitis C virus replication using a high-throughput screen” (Antimicrob Agents Chemother, 2007).

What was measured:
[1] = Cytotoxicity against human HuH7 cells; assay type: cell-based, Huh-7
Hepatitis C virus [2] = test: Antiviral activity against HCV replication in human HuH7 cells expressing Rep-Feo replicon by luciferase assay; assay type: functional, organism-based, Hepacivirus hominis; conditions: Huh-7
Hepatitis C virus [3] = test: Antiviral activity against HCV JFH1 replication in human Huh7.5.1 cells at 5 uM after 48 hrs by quantitative RT-PCR analysis relative to 1 ng/ml interferon; assay type: functional, Hepacivirus hominis, JFH-1, Huh-7
Hepatitis C virus [4] = test: Antiviral activity against HCV JFH1 replication in human Huh7.5.1 cells at 1 uM after 48 hrs by quantitative RT-PCR analysis relative to 1 ng/ml interferon; assay type: functional, Hepacivirus hominis, JFH-1, Huh-7

Structure (SMILES)	EC50 (Hepatitis C virus [2]) [µM]	CC50 [1] [µM]	Activity (Hepatitis C virus [3]) [%]	Activity (Hepatitis C virus [4]) [%]
c1ccc(C2NCCc3c2[nH]c2ccccc32)cc1 (stereo unspecified)	30	> 50		
CC(=O)OC[C@H]1OC(CCO/N=C2/[C@H]3CCn4c(=O)n(-c5ccccc5)c(=O)n4[C@H]3[C@H](O)[C@@H]3O[C@H]23)C=C[C@@H]1OC(C)=O (stereo partly specified)	0.7	9		
CC(=O)OC[C@H]1O[C@@H](O/N=C2/[C@H]3CCn4c(=O)n(-c5ccccc5)c(=O)n4C3[C@H](O)[C@@H]3O[C@H]23)[C@H](OC(C)=O)[C@@H](OC(C)=O)[C@@H]1OC(C)=O (stereo partly specified)	42.9	> 50		
CCCNC(=O)OC[C@H]1O[C@H](CCO/N=C(\C)CCN2CCc3nc(-c4ccccc4)c(-c4ccccc4)cc3C2)C=C[C@@H]1Oc1ccc(OC)cc1	14.2	> 50		
Cc1cc(C)c(-c2cc([C@H](C)O/N=C3\[C@H]4CCn5c(=O)n(-c6ccccc6)c(=O)n5C4[C@H](O)[C@@H]4O[C@H]34)on2)c(C)c1 (stereo partly specified)	< 0.5	19.5	48.4	45.1
C#CCCCO/N=C1/C[C@@H](O)[C@@H](O)[C@@H]2[C@@H]3C(=O)N(CCC(=O)OCC)C(=O)[C@@H]3CC[C@@H]12	> 100	> 50		
O=c1n(-c2ccccc2)c(=O)n2n1CC[C@@H]1/C(=N\OC[C@@H](O)COCc3ccco3)[C@H]3O[C@H]3[C@@H](O)C12 (stereo partly specified)	7	> 50		
O=C1C2C=C(I)C(CC2OCCCCCCO)[C@]12CO2 (stereo partly specified)	26.7	> 50		
O=C1C2C=C(I)C(CC2OCCCCO)[C@]12CCCO2 (stereo partly specified)	> 30	> 50		
O=C1C2C=C(I)C(CC2OCCCCO)[C@]12CO2 (stereo partly specified)	25.7	> 50		
C#CCCCO/N=C1/[C@H]2CCN3C(=O)N([C@@H](CC)c4ccccc4)CN3[C@H]2[C@H](O)[C@@H]2O[C@H]12	3.8	> 50		
C[C@@]12COC[C@]13C=C(Br)C(C2)[C@]1(CO1)C3=O	12.7	> 50		
C[C@H](O/N=C1\[C@H]2CCn3c(=O)n(-c4ccccc4)c(=O)n3C2[C@H](O)[C@@H]2O[C@H]12)c1cn([C@H](CO)Cc2ccccc2)nn1 (stereo partly specified)	7	> 50		
O=C1[C@@]2(CO)C=C(Br)C(CC2c2ccccc2)[C@]12CO2 (stereo partly specified)	6.6	> 50		
C[C@@H](O/N=C1\[C@H]2CCn3c(=O)n(-c4ccccc4)c(=O)n3C2[C@H](O)[C@@H]2O[C@H]12)c1cn([C@H](CO)Cc2ccccc2)nn1 (stereo partly specified)	7.6	> 50		
O=C1[C@@]2(CO)C=C(I)C(CC2c2ccccc2)[C@]12CO2 (stereo partly specified)	3.5	27.1	48.4	45.1
COc1ccc(O[C@H]2C=C[C@@H](c3ccccc3)O[C@@H]2CO/N=C(\C)CCN2CCc3nc(-c4ccccc4)c(-c4ccccc4)cc3C2)cc1	21.1	> 50		
C=CC[C@@H]1C=C[C@H](O/N=C2\[C@H]3CCn4c(=O)n(-c5ccccc5)c(=O)n4[C@H]3[C@H](O)[C@@H]3O[C@H]23)[C@@H](CO)O1	7.75	35.3		

Continued by falling EC50 (Hepatitis C virus [2]), values first:

EC50 (Hepatitis C virus [2]) [µM]	Structure (SMILES)	CC50 [1] [µM]	Activity (Hepatitis C virus [3]) [%]	Activity (Hepatitis C virus [4]) [%]
19.7	O=C1C2C=C(Br)C(CC2c2ccccc2)[C@]12CO2 (stereo partly specified)	> 50		
19.6	O=C1C2C=C(Br)C(CC2OCCCCCCO)[C@]12CO2 (stereo partly specified)	> 50		
9.1	O=C1C2C=C(I)C(CC2c2ccccc2)[C@]12CO2 (stereo partly specified)	> 50		
8	CO[C@]12C=C(Br)C(CC1c1cccc(C)c1)[C@]1(CO1)C2=O (stereo partly specified)	> 50		
2.6	COc1ccc(O[C@H]2C=C[C@@H](c3ccccc3)O[C@@H]2CO/N=C2/[C@H]3CCn4c(=O)n(-c5ccccc5)c(=O)n4[C@H]3[C@H](O)[C@@H]3O[C@H]23)cc1	18		
2.5	CC[C@@H](c1ccccc1)N1CN2[C@H]3[C@H](O)[C@@H]4O[C@@H]4/C(=N\OC[C@@H](O)COCc4ccco4)[C@H]3CCN2C1=O	> 50		
1.5	Cc1cc2c(nc1C)CCCN2C[C@H](C)O/N=C1\[C@H]2CCn3c(=O)n(-c4ccccc4)c(=O)n3[C@H]2[C@H](O)[C@@H]2O[C@H]12	39.3		
1.4	C#CCCCO/N=C1/[C@H]2CCN3C(=O)N(c4ccccc4)CN3[C@H]2[C@H](O)[C@@H]2O[C@H]12	> 50		
